Source: ChEMBL document CHEMBL1129317, “Novel selective and partial agonists of 5-HT3 receptors. Part 1. Synthesis and biological evaluation of piperazinopyrrolothienopyrazines” (J Med Chem, 1996)

Experiments:
[1] = molecular target: 5-hydroxytryptamine receptor 1B (Rattus norvegicus, UniProt P28564); assay: Binding affinity for 5-hydroxytryptamine 1B receptor
[2] = molecular target: T1, 5-hydroxytryptamine receptor 2C (Homo sapiens, UniProt P28335); assay: Binding affinity towards 5-hydroxytryptamine 2C receptor
T1 sequence (P28335 whole entry): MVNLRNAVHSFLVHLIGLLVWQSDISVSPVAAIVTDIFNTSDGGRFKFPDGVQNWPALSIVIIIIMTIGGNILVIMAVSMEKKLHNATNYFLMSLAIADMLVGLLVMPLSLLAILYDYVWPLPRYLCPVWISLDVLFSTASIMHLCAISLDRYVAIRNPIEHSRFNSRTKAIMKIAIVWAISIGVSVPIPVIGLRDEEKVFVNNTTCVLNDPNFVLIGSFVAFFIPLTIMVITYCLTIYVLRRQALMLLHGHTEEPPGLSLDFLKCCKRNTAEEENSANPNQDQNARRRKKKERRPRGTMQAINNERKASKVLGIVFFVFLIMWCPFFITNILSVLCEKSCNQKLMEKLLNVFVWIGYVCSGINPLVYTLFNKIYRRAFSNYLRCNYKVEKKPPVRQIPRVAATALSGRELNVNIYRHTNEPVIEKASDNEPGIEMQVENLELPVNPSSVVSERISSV

[3] = molecular target: 5-hydroxytryptamine receptor 1D (Sus scrofa, UniProt P79400); assay: Binding affinity for 5-hydroxytryptamine 1D receptor
[4] = molecular target: T2, Serotonin 3 (5-HT3) receptor (Rattus norvegicus, UniProt P35563+Q9JJ16); assay: Binding affinity towards 5-hydroxytryptamine 3 receptor; assay type: protein-complex assay
T2 sequence (P35563 whole entry): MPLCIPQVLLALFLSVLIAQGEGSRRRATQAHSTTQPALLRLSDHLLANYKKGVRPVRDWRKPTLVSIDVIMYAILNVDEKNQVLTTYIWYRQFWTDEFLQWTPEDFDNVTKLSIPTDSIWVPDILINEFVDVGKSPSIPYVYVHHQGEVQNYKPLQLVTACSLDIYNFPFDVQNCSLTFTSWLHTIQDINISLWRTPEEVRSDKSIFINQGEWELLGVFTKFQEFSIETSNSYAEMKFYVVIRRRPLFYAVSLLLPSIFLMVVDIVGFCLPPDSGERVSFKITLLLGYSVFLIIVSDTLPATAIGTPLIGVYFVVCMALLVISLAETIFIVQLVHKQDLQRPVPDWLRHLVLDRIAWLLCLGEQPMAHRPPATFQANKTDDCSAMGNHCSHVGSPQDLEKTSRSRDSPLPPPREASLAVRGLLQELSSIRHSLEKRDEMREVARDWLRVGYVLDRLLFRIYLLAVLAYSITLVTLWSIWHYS
T2 sequence (Q9JJ16 whole entry): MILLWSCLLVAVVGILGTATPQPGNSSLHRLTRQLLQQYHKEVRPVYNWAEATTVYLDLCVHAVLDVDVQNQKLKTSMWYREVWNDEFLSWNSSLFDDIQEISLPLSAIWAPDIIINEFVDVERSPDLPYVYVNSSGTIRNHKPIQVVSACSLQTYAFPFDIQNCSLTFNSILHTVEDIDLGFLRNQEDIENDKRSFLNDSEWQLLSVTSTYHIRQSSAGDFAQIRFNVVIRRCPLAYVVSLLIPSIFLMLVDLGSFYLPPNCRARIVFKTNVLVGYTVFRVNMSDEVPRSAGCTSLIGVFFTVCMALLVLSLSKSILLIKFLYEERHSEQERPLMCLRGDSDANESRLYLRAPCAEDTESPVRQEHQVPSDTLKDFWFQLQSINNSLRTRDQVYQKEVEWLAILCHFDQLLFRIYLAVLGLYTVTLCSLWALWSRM

[5] = molecular target: 5-hydroxytryptamine receptor 2A (Bos taurus, UniProt Q75Z89); assay: Binding affinity towards 5-hydroxytryptamine 2A receptor
[6] = molecular target: T3, 5-hydroxytryptamine receptor 1A (Homo sapiens, UniProt P08908); assay: Binding affinity for 5-hydroxytryptamine 1A receptor
T3 sequence (P08908 whole entry): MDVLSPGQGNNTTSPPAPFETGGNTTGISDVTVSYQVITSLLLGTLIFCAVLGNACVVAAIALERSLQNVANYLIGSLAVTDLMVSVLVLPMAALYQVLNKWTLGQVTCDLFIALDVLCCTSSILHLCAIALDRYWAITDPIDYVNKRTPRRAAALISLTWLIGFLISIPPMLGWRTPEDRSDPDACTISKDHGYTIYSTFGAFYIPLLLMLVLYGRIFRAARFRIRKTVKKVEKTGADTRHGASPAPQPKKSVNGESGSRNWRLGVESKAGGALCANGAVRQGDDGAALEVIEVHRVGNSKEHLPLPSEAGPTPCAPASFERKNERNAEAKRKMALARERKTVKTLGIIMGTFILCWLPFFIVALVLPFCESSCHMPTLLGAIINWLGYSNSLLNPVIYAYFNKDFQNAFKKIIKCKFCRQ

Chain of 5-hydroxytryptamine receptor 1B (P28564 whole entry): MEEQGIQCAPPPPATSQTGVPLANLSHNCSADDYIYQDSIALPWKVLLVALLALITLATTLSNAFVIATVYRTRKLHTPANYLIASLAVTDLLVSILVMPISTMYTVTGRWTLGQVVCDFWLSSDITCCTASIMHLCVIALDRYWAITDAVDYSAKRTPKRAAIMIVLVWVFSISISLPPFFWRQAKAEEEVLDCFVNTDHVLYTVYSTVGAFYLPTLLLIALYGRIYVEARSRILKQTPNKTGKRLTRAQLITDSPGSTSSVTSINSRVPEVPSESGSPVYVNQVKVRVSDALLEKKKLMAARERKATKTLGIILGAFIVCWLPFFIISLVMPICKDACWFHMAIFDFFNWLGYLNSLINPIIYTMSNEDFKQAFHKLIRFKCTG
Chain of 5-hydroxytryptamine receptor 2A (Q75Z89 whole entry): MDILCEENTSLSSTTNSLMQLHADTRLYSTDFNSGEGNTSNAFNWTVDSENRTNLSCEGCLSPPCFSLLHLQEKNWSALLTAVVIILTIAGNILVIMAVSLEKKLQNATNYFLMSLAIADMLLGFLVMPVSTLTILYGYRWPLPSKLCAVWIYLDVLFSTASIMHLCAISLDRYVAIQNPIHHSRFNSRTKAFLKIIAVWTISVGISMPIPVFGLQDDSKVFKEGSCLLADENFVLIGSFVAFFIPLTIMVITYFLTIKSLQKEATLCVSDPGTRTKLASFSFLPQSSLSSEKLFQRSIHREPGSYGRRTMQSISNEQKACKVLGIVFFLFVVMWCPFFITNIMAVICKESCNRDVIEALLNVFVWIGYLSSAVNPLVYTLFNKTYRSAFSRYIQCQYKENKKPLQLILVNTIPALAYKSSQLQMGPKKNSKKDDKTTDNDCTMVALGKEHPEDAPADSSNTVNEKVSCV
Chain of 5-hydroxytryptamine receptor 1D (P79400 whole entry): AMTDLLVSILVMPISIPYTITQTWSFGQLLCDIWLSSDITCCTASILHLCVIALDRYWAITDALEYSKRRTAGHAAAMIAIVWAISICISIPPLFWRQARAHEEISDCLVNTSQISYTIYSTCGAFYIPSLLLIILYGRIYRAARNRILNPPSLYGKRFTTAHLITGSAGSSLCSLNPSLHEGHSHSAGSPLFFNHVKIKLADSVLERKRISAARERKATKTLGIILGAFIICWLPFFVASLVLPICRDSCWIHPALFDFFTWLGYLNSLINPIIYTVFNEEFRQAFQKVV

Row | SMILES | IC50 [1] | IC50 [2] | IC50 [3] | IC50 [4] | IC50 [5] | IC50 [6]
1 | CN1CCN(c2nc3ccsc3n3cccc23)CC1 | 11.2 µM | 0.24 µM | 0.398 µM | 0.813 µM | 1.29 µM | 0.117 µM
2 | FC(F)(F)c1cccc(N2CCN(c3nc4sc(-c5ccccc5)cc4n4cccc34)CC2)c1 | > 100 µM | 23.4 µM | > 100 µM | 1740 µM | > 100 µM | > 100 µM
3 | c1cc2c(N3CCN(Cc4ccc5c(c4)OCO5)CC3)nc3sccc3n2c1 | 7.08 µM | 2.57 µM | 20 µM | 0.00102 µM | 24.5 µM | –
4 | FC(F)(F)c1cccc(N2CCN(c3nc4sccc4n4cccc34)CC2)c1 | 7.41 µM | 5.89 µM | 57.5 µM | 74.1 µM | 832 µM | 12.6 µM
5 | FC(F)(F)c1cccc(N2CCN(c3nc4scc(-c5ccccc5)c4n4cccc34)CC2)c1 | 19.1 µM | 1.07 µM | 35.5 µM | 2.95 µM | 87.1 µM | 17.8 µM
6 | CN1CCN(c2nc3cc(C(F)(F)F)ccc3n3cccc23)CC1 | 0.339 µM | – | 0.123 µM | 1.32 µM | 18.6 µM | 0.0468 µM
7 | c1cc2c(N3CCN(Cc4ccc5c(c4)OCO5)CC3)nc3ccsc3n2c1 | 3.09 µM | 0.457 µM | 36.3 µM | 0.00257 µM | 11 µM | 0.263 µM
8 | Clc1ccc(CN2CCN(c3nc4ccsc4n4cccc34)CC2)cc1Cl | 4.27 µM | 3.89 µM | 44.7 µM | 2.29 µM | 17.4 µM | 1.35 µM
9 | CCCN1CCN(c2nc3ccsc3n3cccc23)CC1 | 1.1 µM | 0.347 µM | 0.135 µM | 0.0603 µM | 1.07 µM | 0.0933 µM
10 | Clc1ccc(CN2CCN(c3nc4sccc4n4cccc34)CC2)cc1Cl | 33.9 µM | 8.71 µM | 257 µM | 1.17 µM | 191 µM | 10.2 µM
11 | c1ccc(CN2CCN(c3nc4sc(-c5ccccc5)cc4n4cccc34)CC2)cc1 | > 100 µM | 1000 µM | 537 µM | 39.8 µM | > 100 µM | 389 µM
12 | C(=C\c1ccccc1)/CN1CCN(c2nc3ccsc3n3cccc23)CC1 | 0.646 µM | 0.708 µM | 105 µM | 0.2 µM | 0.851 µM | 0.0832 µM
13 | FC(F)(F)c1ccccc1CCN1CCN(c2nc3ccsc3n3cccc23)CC1 | 18.6 µM | 1.07 µM | 200 µM | 269 µM | 5.13 µM | 0.0724 µM
14 | C1=CCN(c2nc3ccsc3n3cccc23)CC1 | – | > 100 µM | > 100 µM | > 100 µM | 112 µM | 457 µM
15 | c1ccc2nc(N3CCNCC3)ccc2c1 [QUIPAZINE] | 7.08 µM | 0.0617 µM | 3.72 µM | – | 3.47 µM | –
16 | c1ccc(N2CCN(c3nc4ccsc4n4cccc34)CC2)cc1 | – | > 100 µM | > 100 µM | > 100 µM | > 100 µM | > 100 µM
17 | FC(F)(F)c1cccc(N2CCN(c3nc4ccsc4n4cccc34)CC2)c1 | – | 0.155 µM | 1.26 µM | 1.58 µM | 1.78 µM | 0.288 µM
18 | CN1CCN(c2nc3sccc3n3cccc23)CC1 | – | – | 0.912 µM | 0.24 µM | 2.34 µM | 0.0525 µM
